We go through 1 molecule from the NIST ThermoML archive (doi:10.1016/j.tca.2016.03.009).

Structures are written as SMILES. Numbers after ± are expanded uncertainties.

The conditions of data set [1]: DSC.
Data set [2] is described as follows: Molar enthalpy of transition or fusion. Conditions: DSC.

Regarding `CCCCOc1cc2c3cc(OCCCC)c(OCCCC)cc3c3cc(OCCCC)c(OCCCC)cc3c2cc1OCCCC` [2,3,6,7,10,11-hexabutoxytriphenylene], the Triple point temperature is reported as 360.35 ± 1 K in data set [1] (Crystal) and 417.95 ± 1 K in data set [1] (Liquid crystal of unknown type). For the same molecule, the figures for the “Molar enthalpy of transition or fusion” value in data set [2] (Crystal) and in data set [2] (Liquid crystal of unknown type) were 5.4 ± 0.174 kcal/mol and 4.47 ± 0.141 kcal/mol, respectively.
